Entries after “also recorded” stand apart in the source; their conditions may differ. Where two headings read alike, the source gives them in different places.
Columns and labels:
[1] = system: CLB-GE; assay: Cell viability by resazurin assay, 72 h; assay type: cell-based; conditions: Homo sapiens
[2] = system: KELLY; assay: Cell viability by resazurin assay, 72 h; assay type: cell-based, human; conditions: ALK F1174L, amplified, MYCN amplified
[3] = system: CLB-PE; assay: Cell viability by resazurin assay, 72 h; assay type: cell-based; conditions: Homo sapiens
[4] = system: SK-N-DZ; assay: Cell viability by resazurin assay, 72 h; assay type: cell-based; conditions: Homo sapiens
[5] = system: IMR32; assay: Cell viability by resazurin assay, 72 h; assay type: cell-based, human; conditions: ALK wt, MYCN amplified
[6] = system: CLB-BAR; assay: Cell viability by resazurin assay, 72 h; assay type: cell-based; conditions: Homo sapiens
[7] = system: SK-N-BE; assay: Cell viability by resazurin assay, 72 h; assay type: cell-based; conditions: Homo sapiens
[8] = system: CLB-GAR; assay: Cell viability by resazurin assay, 72 h; assay type: cell-based, human; conditions: ALK R1275Q, MYCN nonamplified
[9] = system: SK-N-AS; assay: Cell viability by resazurin assay, 72 h; assay type: cell-based; conditions: Homo sapiens
[10] = system: ALK-I1171T metastatic neuroblastoma; assay type: in vivo, human; conditions: for Primary tumor volume (MRI): ∼18.8 mL immediately before start

IC50 [4] [nM] | IC50 [7] [nM] | IC50 [9] [nM] | Structure (SMILES) | IC50 [1] [nM] | IC50 [2] [nM] | IC50 ([2]; Homo sapiens, Kelly) [nM] | IC50 [3] [nM] | IC50 [5] [nM] | IC50 ([5]; Homo sapiens, IMR-32, 72 h) [nM] | IC50 [6] [nM] | IC50 [8] [nM] | IC50 ([8]; Homo sapiens) [nM] | Clinical evaluation (CT, MRI, MIBG scintigraphy) ([10]; 21 mo after initiation of ceritinib, 1 yr after surgery) | Primary tumor volume (MRI) ([10]; after 3 mo therapy) [mL] | Primary tumor volume (MRI) ([10]; after 6 mo therapy, prior to surgery) [mL] | Decrease in size of primary tumor (MRI, volumetric) ([10]; after 6.5 mo of ceritinib treatment) [%] | Clinical status ([10]; after 34 mo of continuous ceritinib treatment) | Urinary catecholamines ([10]; after the first 4-wk cycle, 450 mg/m^2 once daily) | Ki-67 positivity of resected tumor ([10]; tumor removed at 7.5 mo of treatment, 27% before treatment) [%]
> 800 | > 1500 | > 3000 | Cc1cc(Nc2ncc(Cl)c(Nc3ccccc3S(=O)(=O)C(C)C)n2)c(OC(C)C)cc1C1CCNCC1 [ceritinib, 5-chloro-N2-(2-isopropoxy-5-methyl-4-(piperidin-4-yl)phenyl)-N4-(2-(isopropylsulfonyl)phenyl)pyrimidine-2,4-diamine] | 131 ± 24 | 329 ± 36 | ~330 | > 15000 | > 500 | > 350 | 36.1 ± 6.2 | 102 ± 16 | ~110 | complete remission at all metastatic sites; also recorded: no residual tumor in the abdomen and complete resolution of metastases at all sites | ~13.8 | ~10.6 | −43.6 | continuous complete remission | decreased to levels below the upper reference limit | 5
> 4000 | > 1000 | 353 ± 27 | C[C@@H](Oc1cc(-c2cnn(C3CCNCC3)c2)cnc1N)c1c(Cl)ccc(F)c1Cl [crizotinib] | 234 ± 18 | 333 ± 78 | ~330 | > 4000 | 349 ± 45 | > 350 | 54.9 ± 20 | – | – | – | – | – | – | – | – | –

Reference: paper PMC6071567 (Cold Spring Harbor Molecular Case Studies, 2018)
